The source of these data is US6669946B2, “METHOD FOR IDENTIFYING INDIVIDUALS SUFFERING FROM A CELLULAR ABNORMALITY SOME OF WHOSE ABNORMAL CELLS PRESENT COMPLEXES OF HUMAN LEUKOCYTE ANTIGEN TYROSINASE DERIVED PEPTIDES, AND METHODS FOR TREATING SAID INDIVIDUALS” (Ludwig Institute for Cancer Research, priority 1992, dated 2003).

What all share (assay type): cell-based, human
The subject of data set [1] is cytolytic T cell clone CTL 2/9. Put plainly: 51Cr release assay on peptide-sensitized HLA-A2 presenting cells with CTL 2/9. The conditions noted are these: SK29-MEL 1.218 and T202LB; peptide 100 μM down to 0.01 μM; E/T ratio 40/1; four hours. The method, then:
(§1) Using the methodologies described in examples 1-5, various fragments of the CDNA were cotransfected with a gene for HLA-A2 in COS-7 cells, and TNF release assays were performed. […] The 400 base fragment used corresponded to bases 711 to 1152 of SEQ ID NO: 1. The amino acid sequence for which the fragment codes was deduced, and this sequence was then compared to the information provided by Hunt et al., Science 255: 1261 (1992), and Falk et al., Nature 351: 290 (1991), the disclosures of which are both incorporated by reference in their entirety. These references discuss consensus sequences for HLA-A2 presented peptides. Specifically, Hunt discusses nonapeptides, where either Leu or Ile is always found at the second position, Leu being the “dominant residue”. The ninth residue is described as always being a residue with an aliphatic hydrocarbon side chain. Val is the dominant residue at this position. […]
(§2) The tyrosinase loss variants, cytolytic T cell clones, and peptides were incubated for one hour in a solution containing ^51Cr, at 37° C., either with or without anti HLA-A2 antibody MA2.1, which was used to stabilize empty HLA-A2 molecules. […] After 30 minutes, effector cells were added at an E/T ratio of 40/1 and four hours later, 10λ of supernatant were collected and radioactivity counted.

Data set [2] relates to cytolytic T cell clone CTL IVSB. Put plainly: 51Cr release assay on peptide-sensitized HLA-A2 presenting cells with CTL IVSB. The conditions noted are these: SK29-MEL 1.218 and T202LB; peptide 100 μM down to 0.01 μM; E/T ratio 40/1; four hours. The procedure: as §1, §2
For a further data set, the system named is CTL clone CTL 210/9. In words: Parallel peptide recognition experiment with CTL 210/9. The method, then:
as §1
The tyrosinase loss variants, cytolytic T cell clones, and peptides were incubated for one hour in a solution containing ^51Cr, at 37° C., either with or without anti HLA-A2 antibody MA2.1, which was used to stabilize empty HLA-A2 molecules. […] After 30 minutes, effector cells were added at an E/T ratio of 40/1 and four hours later, 10λ of supernatant were collected and radioactivity counted. […]

A further data set relates to CTL IVSB. Put plainly: TNF release by CTL IVSB on COS-7 cells cotransfected with HLA-A2 and cDNA pool or fragment. As to conditions: COS-7 cotransfected with cDNA fragment and HLA-A2 gene. The procedure:
(§3) The amplified plasmids were then transfected into eukaryotic cells. Samples of COS-7 cells were seeded, at 15,000 cells/well into tissue culture flat bottom microwells, in Dulbeco's modified Eagles Medium (“DMEM”) supplemented with 10% fetal calf serum. The cells were incubated overnight at 37° C., medium was removed and then replaced by 30 μl/well of DMEM medium containing 10% Nu serum, 400 μg/ml DEAE-dextran, 100 μM chloroquine, 100 ng of plasmid pcDNA-I/Amp-A2 and 100 ng of DNA of a pool of the cDNA library described supra. Plasmid pcDNA-I/Amp-A2 contains the HLA-A2 gene from SK29-MEL. Following four hours of incubation at 37° C, the medium was removed, and replaced by 50 μl of PBS containing 10% DMSO. This medium was removed after two minutes and replaced by 200 μl of DMEM supplemented with 10% of FCS.
(§4) Following this change in medium, COS cells were incubated for 48 hours at 37° C. Medium was then discarded, and 2000 cells of either of the described CTL clones were added, in 100 μl of Iscove medium containing 10% pooled human serum. When clone 210/9 was used, the medium was supplemented with 25 U/ml of IL-2. Supernatant was removed after 24 hours, and TNF content was determined in an assay on WEHI cells, as described by Traversari et al., Immunogenetics 35: 145-152 (1992), the disclosure of which is incorporated by reference. […]

The next data set concerns CTL 210/9. Put plainly: TNF release by CTL 210/9 on COS-7 cells cotransfected with HLA-A2 and cDNA pool or fragment. As to conditions: COS-7 cotransfected with cDNA fragment and HLA-A2. The method, then:
as §3, §4

“Also recorded” adds a separate entry of the source.

In the case of “Tyr Met Asn Gly Thr Met Ser Gln Val (YMNGTMSQV) [SEQ ID NO: 2, tyrosinase derived nonapeptide presented by HLA-A2]”, in data set [1], the “recognition of peptide by CTL 2/9” value is recorded as “not”. The “recognition of complexes of HLA-A2 and peptide by CTL IVSB” value in data set [2] is “recognition; also recorded: recognized”. In the data set with CTL clone CTL 210/9, the “recognition of complexes of HLA-A2 and peptide by CTL 210/9” value is “not recognized; also recorded: did not recognize”.

B1: second gene fragment: fragment from base 1 to base 1092 of SEQ ID NO: 1, not encoding SEQ ID NO: 2 (nucleic acid)
DNA: GACCTTGTGAGGACTAGAGGAAGAATGCTCCTGGCTGTTTTGTACTGCCTGCTGTGGAGTTTCCAGACCTCCGCTGGCCATTTCCCTAGAGCCTGTGTCTCCTCTAAGAACCTGATGGAGAAGGAATGCTGTCCACCGTGGAGCGGGGACAGGAGTCCCTGTGGCCAGCTTTCAGGCAGAGGTTCCTGTCAGAATATCCTTCTGTCCAATGCACCACTTGGGCCTCAATTTCCCTTCACAGGGGTGGATGACCGGGAGTCGTGGCCTTCCGTCTTTTATAATAGGACCTGCCAGTGCTCTGGCAACTTCATGGGATTCAACTGTGGAAACTGCAAGTTTGGCTTTTGGGGACCAAACTGCACAGAGAGACGACTCTTGGTGAGAAGAAACATCTTCGATTTGAGTGCCCCAGAGAAGGACAAATTTTTTGCCTACCTCACTTTAGCAAAGCATACCATCAGCTCAGACTATGTCATCCCCATAGGGACCTATGGCCAAATGAAAAATGGATCAACACCCATGTTTAACGACATCAATATTTATGACCTCTTTGTCTGGATGCATTATTATGTGTCAATGGATGCACTGCTTGGGGGATCTGAAATCTGGAGAGACATTGATTTTGCCCATGAAGCACCAGCTTTTCTGCCTTGGCATAGACTCTTCTTGTTGCGGTGGGAACAAGAAATCCAGAAGCTGACAGGAGATGAAAACTTCACTATTCCATATTGGGACTGGCGGGATGCAGAAAAGTGTGACATTTGCACAGATGAGTACATGGGAGGTCAGCACCCCACAAATCCTAACTTACTCAGCCCAGCATCATTCTTCTCCTCTTGGCAGATTGTCTGTAGCCGATTGGAGGAGTACAACAGCCATCAGTCTTTATGCAATGGAACGCCCGAGGGACCTTTACGGCGTAATCCTGGAAACCATGACAAATCCAGAACCCCAAGGCTCCCCTCTTCAGCTGATGTAGAATTTTGCCTGAGTTTGACCCAATATGAATCTGGTTCCATGGATAAAGCTGCCAATTTCAGCTTTAGAAATACACTGGAAGGATTTGCTAGTCCACTTACTGGGATAGCGGAT
Turning to B1, the “TNF release from / recognition by CTL IVSB” value in the data set on CTL IVSB is “did not”. For the same molecule, the “recognition by CTL 210/9 of antigen on transfected cells” value in the data set on CTL 210/9 is “recognized”.

B2: 400 base pair fragment: fragment corresponding to bases 711 to 1152 of SEQ ID NO: 1 (nucleic acid)
DNA: AAACTTCACTATTCCATATTGGGACTGGCGGGATGCAGAAAAGTGTGACATTTGCACAGATGAGTACATGGGAGGTCAGCACCCCACAAATCCTAACTTACTCAGCCCAGCATCATTCTTCTCCTCTTGGCAGATTGTCTGTAGCCGATTGGAGGAGTACAACAGCCATCAGTCTTTATGCAATGGAACGCCCGAGGGACCTTTACGGCGTAATCCTGGAAACCATGACAAATCCAGAACCCCAAGGCTCCCCTCTTCAGCTGATGTAGAATTTTGCCTGAGTTTGACCCAATATGAATCTGGTTCCATGGATAAAGCTGCCAATTTCAGCTTTAGAAATACACTGGAAGGATTTGCTAGTCCACTTACTGGGATAGCGGATGCCTCTCAAAGCAGCATGCACAATGCCTTGCACATCTATATGAATGGAACAATGTCCCAG
Regarding B2, the “TNF release from / recognition by CTL IVSB” value with CTL IVSB is recorded as “provoked TNF release”.
